Experimental data reported in US11458122B2, “Methods for treating diseases and nerve injuries” (CHILDREN'S HOSPITAL MEDICAL CENTER, priority 2017, dated 2022).

Tests used:
[1] = test system: Egr2 expression in primary rat SCs; test: Small molecule epigenetic compound screening: Egr2 expression by qRT-PCR; format: cell-based; conditions: 8 hours, read-out: Egr2 expression over vehicle treatment
Protocol: Each compound in the Epigenetics compound library (Cayman, 11076) was diluted to a final concentration of 5 μM in the medium containing DMEM/0.5% FBS with L-glutamine and penicillin/streptomycin. SCs were treated with diluted compounds for 8 hours. Treated SCs were washed with PBS and then treated with SingleShot Cell Lysis Kite (172-5080, BioRad) following the manufacturer's instructions. The cell lysates from each well were collected for qRT-PCR by using iTaq Universal SYBR Green One-Step Kit (BioRad 172-5150,) following the instructions. Each compound was tested in triplicate.
EGR2 is a pro-myelinating regulator that serves an indicator of myelinogenic potential. We developed an unbiased gene expression-based assay using real-time quantitative PCR indexing of Egr2 to identify inhibitors of epigenetic enzymes that […] SC maturation. Cultured rat SCs were treated a library of epigenetics compounds targeting enzymes including methyltransferases, demethylases, histone acetyltransferases, histone deacetylases (HDACs), and acetylated histone regulators.

[2] = test system: SCs isolated from neonatal rat sciatic nerve; test: SC cultures treated with HDAC inhibitors: morphology, MPZ/phalloidin immunostaining, qRT-PCR; conditions: 24 hours
[3] = test system: rat SC cultures; test: Western blotting of PI3K/AKT/ERK signalling and Ac-PTEN in SC cultures; format: cell-based
Protocol: (§1) For western blotting, the perineurium and epineurium were removed from sciatic nerves prior to snap-freezing and storage at −80° C. Sciatic nerves and rat SCs were lysed in RIPA buffer, containing protease and phosphatase inhibitors. […] GAPDH (Millipore MAB374) was used as an input control. […] Corresponding secondary antibodies conjugated to HRP were from Jackson ImmunoResearch Laboratories (catalog numbers 111-035-144 and 111-035-003).
The hypermyelinating phenotype observed in Hdac3-cKO mice resembles that of mice overexpressing NRG1 type III. […] Indeed, we detected an increase in the levels of phosphorylated AKT, PI3K, and ERK in Hdac3-cKO nerves at P13 compared to controls (FIG. 5B).
(§2) Treatment of primary rat SCs with the recombinant NRG1 type III for 1 hour led to upregulation of HDAC3 expression (FIG. 5F). This effect appeared to be occluded by a NRG1 signaling inhibitor gefitinib (FIG. 5G), which blocks the signaling of ERBB2/3 receptors activated by NRG1 engagement. Conversely, HDAC3 overexpression inhibited phosphorylation of AKT and ERK induced by NRG1 in SCs (FIG. 5E).

[4] = test system: injured sciatic nerves; test: Sciatic nerve transection injury: remyelination by immunostaining and EM; conditions: for regeneration tracks within the tissue bridge: Dpi 6; for percentages of MBP myelinating axons entering the bridge: Dpi 7 vs vehicle; for myelin sheath thickness in the regenerating bridge / percentage of Ki67+ cells / proportion of EGR2+ maturing SCs in the tissue bridge: Dpi 14; for myelinated axons: Dpi 14 vs vehicle; for myelin thickness of the intact sciatic nerves: uninjured nerves of adult mice, Dpi 35
[5] = Experimental autoimmune encephalomyelitis (EAE) induced by MOG35-55; format: in vivo, mice
Protocol: 8-week-old female C57BL/6 (Charles River lab) mice received injections of 200 μg of myelin oligodendrocyte glycoprotein (MOG) 35-55 peptide emulsified in complete Freund's adjuvant (BD Biosciences), supplemented with 600 μg of Mycobacterium tuberculosis (strain H37Ra; BD Biosciences). 24 and 72 hours after immunization, mice were given two intraperitoneal injections of 400 ng of pertussis toxins (List Biological Laboratories, Cat # NC9675592). EAE onset was monitored daily and scored with Clinical scores (0=healthy; 1=flaccid tail; 2=ataxia and/or paresis of hindlimbs; 3=paralysis of hindlimbs and/or paresis of forelimbs; 4=tetraparalysis; 5=moribund or death).
In the experimental autoimmune encephalomyelitis (EAE) demyelinating mouse model induced by myelin peptide MOG35-55, the most commonly used animal model of multiple sclerosis (BITTNER et al., “Myelin oligodendrocyte glycoprotein (MOG35-55) induced experimental autoimmune encephalomyelitis (EAE) in C57BL/6 mice” J Vis Exp. (2014) Vol. 86, Article 51275 (doi: 10.3791/51275)), HDAC3 inhibitor administration improved motor function reflected in clinical scores as well as in remyelination.

[6] = cited from earlier work
[7] = test system: injured sciatic nerves; test: Compound muscle action potential recording after sciatic nerve transection; format: in vivo, mice; conditions: for CMAP amplitude / conduction velocity: Dpi 18, two weeks treatment
Protocol: CMAPs were amplified and obtained using a Micro 1401 data acquisition unit and analyzed using Spike2 software (<<http://ced.co.uk/products/spkovin>>). Three successive electrical stimulations of the sciatic nerve at 2 mA (0.25-0.5 Hz, 0.1 ms duration) were initiated immediately proximal to the tibial, sural and common peroneal branches via a stimulus isolator connected to the Micro 1401. Conduction velocity was calculated after determining the latency of CMAP onset relative to the stimulus artifact induced by electrical stimulation of the sciatic nerve and the distance between recording and stimulating electrodes measured directly on the nerve. Peak CMAP amplitude and CMAP duration were calculated from each stimulation paradigm. The average of the stimulations of the sciatic nerve for each paradigm were obtained and then averaged across animals.
At Dpi 18, CMAP activity was barely detectable after electrical stimulation of vehicle-treated injured nerves.

[8] = PDA106 100 mg/kg, RGFP966 10 mg/kg
[9] = test system: sciatic nerves; test: HDAC3 inhibitors in neonatal mice: developmental myelination of sciatic nerves
[10] = test system: optic nerve; test: Optic tract transection: axon regeneration by CTB tracing; format: in vivo, mice; conditions: 10 mg/kg, 28 days after injury
Protocol: Axon regeneration was assayed by examining axonal fibers labeled with the anterograde tracer, cholera toxin β (CTB, shown in white color), in the optic nerve sections across the lesion site.

[11] = test system: optic nerve; test: Optic nerve crush injury: CD68 inflammatory microglia/macrophage cells; format: in vivo, mice; conditions: 10 mg/kg i.p., 10 dpi vs DMSO
From the text: Crush injury to the optic nerves of mice (wild type mice) was accomplished with the aid of a pair of cross-action forceps, applying a crush injury to the optic nerve at about 2 mm from the eyeball for about 3 seconds in wildtype mice.

[12] = test system: HDAC3 expression in primary rat SCs; test: HDAC3 expression in primary SCs treated with NRG1 and gefitinib; format: cell-based; conditions: combined with NRG1
Protocol: as §1
PCR primer sequences are available upon request.
as §2

CCOC(=O)CCNc1cc(N2CCc3ccccc3CC2)nc(-c2ccccn2)n1 [GSK-J4, Ethyl 3-((6-(4,5-dihydro-1H-benzo[d]azepin-3(2H)-yl)-2-(pyridin-2-yl)pyrimidin-4-yl)amino)propanoate]
fold induction at 5 µM [1]: ≥ 5

COc1ccc(Cn2ccc3ccc(C(=O)NO)cc32)cc1 [PCI34051]
SC process extension / morphology [2]: minimal effects

CCC(=O)CCCCC[C@@H]1NC(=O)[C@H]2CCCCN2C(=O)[C@H]([C@@H](C)CC)NC(=O)[C@H](Cc2cn(OC)c3ccccc23)NC1=O [apicidin, Cyclo[(2S)-2-amino-8-oxodecanoyl-1-methoxy-L-tryptophyl-L-isoleucyl-(2R)-2-piperidinexcarbonyl]]
fold induction at 5 µM [1]: ≥ 5

CN(C)c1ccc(C(=O)NCCCCCC(=O)NO)cc1 [CAY10398, 4-(dimethylamino)-N-[6-(hydroxyamino)-6-oxohexyl]-benzamide]
fold induction at 5 µM [1]: ≥ 5

Cc1ccc(NC(=O)CCCCCC(=O)Nc2ccccc2N)cc1 [PDA106, N1-(2-Aminophenyl)-N7-(4-methylphenyl)-heptanediamide]
level of acetylated PTEN ([3]; SC cultures): increased
p-AKT, p-PI3K and p-ERK levels ([3]; purified rat SCs): elevation
p-ERK levels ([3]; rat SCs, combined treatment with NRG1): further enhanced
p-ERK and p-AKT levels ([3]; rat SCs, single treatment): increased
regeneration tracks within the tissue bridge [4]: opaque regeneration tracks were observed
percentages of MBP myelinating axons entering the bridge [4]: significantly higher
myelin sheath thickness in the regenerating bridge [4]: thicker myelin sheaths
percentage of Ki67+ cells [4]: decreased
proportion of EGR2+ maturing SCs in the tissue bridge [4]: increased
myelinated axons [4]: increase
myelin thickness of the intact sciatic nerves [4]: does not affect
clinical score (motor function) ([5]; 100 mg/kg i.p. daily for 10 days from PID 15): reduces clinical score
remyelination in the spinal cord / oligodendrocyte myelination in the CNS ([5]; EM of lesion areas at PID 25): promotes oligodendrocyte myelination
half-life [6]: ~8 h
SC process extension / morphology [2]: expansion of cellular processes
CMAP amplitude [7]: increase
conduction velocity [7]: increase

Nc1cc(F)ccc1NC(=O)/C=C/c1cnn(C/C=C/c2ccccc2)c1 [RGFP966, (2E)-N-(2-Amino-4-fluorophenyl)-3-[(2E)-1-(3-phenyl-2-propen-1-yl)-1H-pyrazol-4-yl]-2-propenamide]
tolerability / side effects in mice [8]: without adverse effects on mice
percentage of myelinated axons ([9]; P7 and P15): increase
number of EGR2-expressing mature SCs in sciatic nerves ([9]; neonatal mice, daily from P1, P7): elevation
expression of myelination-associated genes Prx, Mbp, Mpz, Egr2 ([9]; sciatic nerves at P7 vs vehicle): significantly elevated
axon regeneration across the lesion site [10]: long-distance axon regeneration
regeneration tracks within the tissue bridge [4]: opaque regeneration tracks were observed
percentages of MBP myelinating axons entering the bridge [4]: significantly higher
myelin sheath thickness in the regenerating bridge [4]: thicker myelin sheaths
percentage of Ki67+ cells [4]: decreased
proportion of EGR2+ maturing SCs in the tissue bridge [4]: increased
myelinated axons [4]: increase
myelin thickness of the intact sciatic nerves [4]: does not affect
number of CD68 inflammatory microglia/macrophage cells at the injury site [11]: decreased
half-life [6]: ~1 h
SC process extension / morphology [2]: expansion of cellular processes
CMAP amplitude [7]: increase
conduction velocity [7]: increase
motor nerve function (CMAP recordings) ([7]; Dpi 35): improved motor nerve function
functional recovery (conduction velocity, CMAP amplitude and duration) ([7]; aging mice 10-12 months, Dpi 35): enhances functional recovery

COc1cc2ncnc(Nc3ccc(F)c(Cl)c3)c2cc1OCCCN1CCOCC1 [gefitinib]
NRG1-induced upregulation of HDAC3 expression [12]: occluded

COc1cc2c(NC3CCN(CC4CCCCC4)CC3)nc(N3CCCN(C(C)C)CC3)nc2cc1OCCCN1CCCCC1 [UNC0631, N-[1-(cyclohexylmethyl)-4-piperidinyl]-2-[hexahydro-4-(1-methylethyl)-1H-1,4-diazepin-1-yl]-6-methoxy-7-[3-(1-piperidinyl)propoxy] 4-quinazolinamine]
fold induction at 5 µM [1]: ≥ 5

COc1cc2c(NC3CCN(C4CCCCC4)CC3)nc(N3CCCN(C(C)C)CC3)nc2cc1OCCCN1CCCCC1 [UNC0646, N-(1-Cyclohexyl-4-piperidinyl)-2-[hexahydro-4-(1-methylethyl)-1H-1,4-diazepin-1-yl]-6-methoxy-7[3-(1-piperidinyl)propoxy]-4-quinazolinamine]
fold induction at 5 µM [1]: ≥ 5

O=C(CCCCCCC(=O)Nc1ccccc1)NO [SAHA, N-hydroxy-N'-phenyl-octanediamide]
fold induction at 5 µM [1]: ≥ 5

O=C(/C=C/c1ccc(CN(CCO)CCc2c[nH]c3ccccc23)cc1)NO [LAQ824, (2E)-N-hydroxy-3-[4-[[(2-hydroxyethyl)[2-(1H-indol-3-yl)ethyl]amino]methyl]phenyl]-2-propenamide]
fold induction at 5 µM [1]: ≥ 5

Clc1ccc(N/N=C(\c2ccccc2)c2ccccn2)nc1 [JIB-04, (E)-N-(5-Chloro-pyridin-2-yl)-N'-(phenyl-pyridin-2-yl-methylene)-hydrazine]
fold induction at 5 µM [1]: ≥ 5
